Assay results: patent US9980943B2, “Methods of treating muscular dystrophy” (BOARD OF REGENTS OF THE NEVADA SYSTEM OF HIGHER EDUCATION, …, priority 2013, dated 2018)

How the values were obtained:
Assay type in all cases: cell-based, mouse
[1] = system: β-galactosidase in CMV-LacZ C2C12 myoblasts; assay: CMV-LacZ secondary screen in C2C12 myoblasts (β-Gal stabilizing assay); details: CMV-LacZ C2C12 myoblasts
Method in brief: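 CMV-LacZ C2C12 line (clonal, FDG-screened); myoblasts/myotubes dosed 0.5–40 μM (0.5, 1, 5, 10, 20, 40 μM); n=2 per point; β-gal stabilization read-out.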

[2] = system: α7 integrin (LacZ reporter in α7βgal+/− myoblasts); assay: Myoblast α7+/LacZ integrin FDG assay (Burkin assay in myoblasts, 96-well); details: α7+/LacZ myoblasts, 96-well
[3] = system: α7 integrin (LacZ reporter in α7+/LacZ myotubes); assay: Myotube α7 integrin FDG assay (Burkin assay in myotubes, 96-well); details: myotubes
[4] = system: β-galactosidase in CMV-LacZ C2C12 myotubes; assay: CMV-LacZ secondary screen in C2C12 myotubes (β-Gal stabilizing assay); details: C2C12 CMV-LacZ myotubes, fold relative to DMSO
Method in brief: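 Dose-response runs at 0.5–40 μM (0.5, 1, 5, 10, 20, 40 μM; N=2 per point) used a clonal C2C12 line carrying CMV-LacZ. Cells were assayed as myoblasts or as differentiated myotubes, and β-galactosidase levels were read with the FDG fluorogenic substrate.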

For `Cc1nnc(SCC(=O)c2ccc(Br)cc2)s1` [MLS000420298-01], the “CMV-LACZ in Myoblasts (β-galactosidase activity relative to DMSO)” value ([1]; 0.5 uM) was 1.2808, the “CMV-LACZ in Myoblasts (β-galactosidase activity relative to DMSO)” value ([1]; 1 uM) was 0.9383 and the “CMV-LACZ in Myoblasts (β-galactosidase activity relative to DMSO)” value ([1]; 5 uM) was 0.8414. The “CMV-LACZ in Myoblasts (β-galactosidase activity relative to DMSO)” value ([1]; 10 uM) was 1.0482, the “CMV-LACZ in Myoblasts (β-galactosidase activity relative to DMSO)” value ([1]; 20 uM) was 0.9807 and the “CMV-LACZ in Myoblasts (β-galactosidase activity relative to DMSO)” value ([1]; 40 uM) was 1.1930. For the same compound, the “Burkin Assay in Myoblasts, signal relative to DMSO” value ([2]; 0.5 uM) was 1.379, the “Burkin Assay in Myoblasts, signal relative to DMSO” value ([2]; 1 uM) was 1.243 and the “Burkin Assay in Myoblasts, signal relative to DMSO” value ([2]; 5 uM) was 1.083. The “Burkin Assay in Myoblasts, signal relative to DMSO” value ([2]; 10 uM) was 1.1, the “Burkin Assay in Myoblasts, signal relative to DMSO” value ([2]; 20 uM) was 1.111 and the “Burkin Assay in Myoblasts, signal relative to DMSO” value ([2]; 40 uM) was 0.9235. The “Burkin Assay in Myotubes, α7 integrin LacZ reporter signal relative to DMSO” value ([3]; 0.5 uM) was 0.9538, the “Burkin Assay in Myotubes, α7 integrin LacZ reporter signal relative to DMSO” value ([3]; 1 uM) was 1.0464 and the “Burkin Assay in Myotubes, α7 integrin LacZ reporter signal relative to DMSO” value ([3]; 5 uM) was 0.9453. The “Burkin Assay in Myotubes, α7 integrin LacZ reporter signal relative to DMSO” value ([3]; 10 uM) was 0.9005, the “Burkin Assay in Myotubes, α7 integrin LacZ reporter signal relative to DMSO” value ([3]; 20 uM) was 0.91 and the “Burkin Assay in Myotubes, α7 integrin LacZ reporter signal relative to DMSO” value ([3]; 40 uM) was 1.006. The “CMV-LACZ in Myotubes, signal relative to DMSO” value ([4]; 0.5 uM) was 0.9573, the “CMV-LACZ in Myotubes, signal relative to DMSO” value ([4]; 1 uM) was 0.8527 and the “CMV-LACZ in Myotubes, signal relative to DMSO” value ([4]; 5 uM) was 1.0338. For the same compound, the “CMV-LACZ in Myotubes, signal relative to DMSO” value ([4]; 10 uM) was 1.2388, the “CMV-LACZ in Myotubes, signal relative to DMSO” value ([4]; 20 uM) was 1.3660 and the “CMV-LACZ in Myotubes, signal relative to DMSO” value ([4]; 40 uM) was 1.1250.
`CSc1ccc(S(=O)(=O)NCc2ccccc2)cc1` [MLS000531177-01] was tested, and the “CMV-LACZ in Myoblasts (β-galactosidase activity relative to DMSO)” value ([1]; 0.5 uM) was 1.0785, the “CMV-LACZ in Myoblasts (β-galactosidase activity relative to DMSO)” value ([1]; 1 uM) was 1.5065 and the “CMV-LACZ in Myoblasts (β-galactosidase activity relative to DMSO)” value ([1]; 5 uM) was 1.0150. For the same compound, the “CMV-LACZ in Myoblasts (β-galactosidase activity relative to DMSO)” value ([1]; 10 uM) was 0.8958, the “CMV-LACZ in Myoblasts (β-galactosidase activity relative to DMSO)” value ([1]; 20 uM) was 1.2952 and the “CMV-LACZ in Myoblasts (β-galactosidase activity relative to DMSO)” value ([1]; 40 uM) was 0.9422. The “Burkin Assay in Myoblasts, signal relative to DMSO” value ([2]; 0.5 uM) was 0.8826, the “Burkin Assay in Myoblasts, signal relative to DMSO” value ([2]; 1 uM) was 0.923 and the “Burkin Assay in Myoblasts, signal relative to DMSO” value ([2]; 5 uM) was 1.067. The “Burkin Assay in Myoblasts, signal relative to DMSO” value ([2]; 10 uM) was 1.625, the “Burkin Assay in Myoblasts, signal relative to DMSO” value ([2]; 20 uM) was 1.014 and the “Burkin Assay in Myoblasts, signal relative to DMSO” value ([2]; 40 uM) was 0.8008. The “Burkin Assay in Myotubes, α7 integrin LacZ reporter signal relative to DMSO” value ([3]; 0.5 uM) was 0.8259, the “Burkin Assay in Myotubes, α7 integrin LacZ reporter signal relative to DMSO” value ([3]; 1 uM) was 0.7329 and the “Burkin Assay in Myotubes, α7 integrin LacZ reporter signal relative to DMSO” value ([3]; 5 uM) was 1.051. The “Burkin Assay in Myotubes, α7 integrin LacZ reporter signal relative to DMSO” value ([3]; 10 uM) was 1.163, the “Burkin Assay in Myotubes, α7 integrin LacZ reporter signal relative to DMSO” value ([3]; 20 uM) was 0.8007 and the “Burkin Assay in Myotubes, α7 integrin LacZ reporter signal relative to DMSO” value ([3]; 40 uM) was 0.9005. For the same compound, the “CMV-LACZ in Myotubes, signal relative to DMSO” value ([4]; 0.5 uM) was 1.1989, the “CMV-LACZ in Myotubes, signal relative to DMSO” value ([4]; 1 uM) was 1.0411 and the “CMV-LACZ in Myotubes, signal relative to DMSO” value ([4]; 5 uM) was 0.8757. The “CMV-LACZ in Myotubes, signal relative to DMSO” value ([4]; 10 uM) was 0.8917, the “CMV-LACZ in Myotubes, signal relative to DMSO” value ([4]; 20 uM) was 0.9244 and the “CMV-LACZ in Myotubes, signal relative to DMSO” value ([4]; 40 uM) was 1.1522.
`Cn1c(O)c(C(C#N)=C2N=c3ccccc3=N2)c2ccccc21` [MLS000536064-01] was tested, and the “CMV-LACZ in Myoblasts (β-galactosidase activity relative to DMSO)” value ([1]; 0.5 uM) was 0.9105, the “CMV-LACZ in Myoblasts (β-galactosidase activity relative to DMSO)” value ([1]; 1 uM) was 0.7412 and the “CMV-LACZ in Myoblasts (β-galactosidase activity relative to DMSO)” value ([1]; 5 uM) was 2.0402. The “CMV-LACZ in Myoblasts (β-galactosidase activity relative to DMSO)” value ([1]; 10 uM) was 1.3388, the “CMV-LACZ in Myoblasts (β-galactosidase activity relative to DMSO)” value ([1]; 20 uM) was 2.5396 and the “CMV-LACZ in Myoblasts (β-galactosidase activity relative to DMSO)” value ([1]; 40 uM) was 2.4896. For the same compound, the “Burkin Assay in Myoblasts, signal relative to DMSO” value ([2]; 0.5 uM) was 0.8028, the “Burkin Assay in Myoblasts, signal relative to DMSO” value ([2]; 1 uM) was 0.804 and the “Burkin Assay in Myoblasts, signal relative to DMSO” value ([2]; 5 uM) was 0.7333. The “Burkin Assay in Myoblasts, signal relative to DMSO” value ([2]; 10 uM) was 1.047, the “Burkin Assay in Myoblasts, signal relative to DMSO” value ([2]; 20 uM) was 0.544 and the “Burkin Assay in Myoblasts, signal relative to DMSO” value ([2]; 40 uM) was 0.4501. For the same compound, the “Burkin Assay in Myotubes, α7 integrin LacZ reporter signal relative to DMSO” value ([3]; 0.5 uM) was 0.9046, the “Burkin Assay in Myotubes, α7 integrin LacZ reporter signal relative to DMSO” value ([3]; 1 uM) was 0.9555 and the “Burkin Assay in Myotubes, α7 integrin LacZ reporter signal relative to DMSO” value ([3]; 5 uM) was 0.9539. For the same compound, the “Burkin Assay in Myotubes, α7 integrin LacZ reporter signal relative to DMSO” value ([3]; 10 uM) was 1.131, the “Burkin Assay in Myotubes, α7 integrin LacZ reporter signal relative to DMSO” value ([3]; 20 uM) was 0.7642 and the “Burkin Assay in Myotubes, α7 integrin LacZ reporter signal relative to DMSO” value ([3]; 40 uM) was 0.7073. For the same compound, the “CMV-LACZ in Myotubes, signal relative to DMSO” value ([4]; 0.5 uM) was 0.9705, the “CMV-LACZ in Myotubes, signal relative to DMSO” value ([4]; 1 uM) was 1.0389 and the “CMV-LACZ in Myotubes, signal relative to DMSO” value ([4]; 5 uM) was 0.8894. For the same compound, the “CMV-LACZ in Myotubes, signal relative to DMSO” value ([4]; 10 uM) was 1.1027, the “CMV-LACZ in Myotubes, signal relative to DMSO” value ([4]; 20 uM) was 1.2344 and the “CMV-LACZ in Myotubes, signal relative to DMSO” value ([4]; 40 uM) was 1.0233.
